From article PMC10224335, “Purification, Identification, and Inhibitory Mechanisms of a Novel ACE Inhibitory Peptide from Torreya grandis” (Nutrients, 2023)
Read-outs that look alike come from different tables or passages of the source. Peptide text beside a SMILES is read from it.

How the values were obtained:
ACE = conditions: cited from earlier work; for IC50: read-out: IC50 of ACE inhibition
Description: The ACE inhibitory activity of the remaining peptides was low, and the inhibition rate was below 20%. Here, we measured the I ... || Based on the Lineweaver–Burk plot analysis, the inhibitory mechanism of VW-7 on ACE was investigated. According to Table 3, the Vmax value decreased and the Km value increased as the peptide concentration increased. […] When the peptide binds to ...

pepsin and trypsin = assay: Stability against simulated gastrointestinal digestion (pepsin, trypsin); format: in vitro ADME
Description: The simulated gastrointestinal digestion method was applied according to Li et al., with some modifications. In brief, pH 2.0 was adjusted for the VW-7 solution (ultrapure water, c = 0.4 mg/mL). The peptide solution was mixed with pepsin (2%, w/w) for 2 h at 37 °C. The pH was changed to 7.0 after the process, and half of the liquid was withdrawn. The other half was then given trypsin (2%, w/w) and digested at 37 °C for 2 h. Finally, the reaction was terminated by a boiling water bath, and the ACE inhibition rate of the two-step reaction products was measured.
RP-HPLC was used to analyze the liquid obtained after digestion. The mobile phase A was water containing 0.1% TFA, and the mobile phase B was 100% ACN containing 0.1% TFA. The flow rate was set to 1 mL/min, the detection wavelength was 214 nm, and the column temperature was 30 °C.

Cell viability, CCK-8 = format: cell-based, Human; conditions: human, EA.hy926 cells
Description: (§1) Human umbilical vein endothelial cells (EA.hy926) were grown in DMEM with 10% FBS and 1% penicillin-streptomycin at 37 °C in a humidified environment of 5% CO2.
(§2) Using a cell counting kit-8 (CCK-8) kit, the cytotoxicity of the peptide VNDYLNW in EA.hy926 was assessed. In 96-well cell culture plates, cells were inoculated at a density of 5 × 10^3/well. After 24 h of pre-incubation at 37 ℃ and 5% CO2, 50 µL of peptides with different concentrations were added to achieve the final concentrations of solution of 100, 200, 400, 600, 800, and 1000 µg/mL (using complete medium as the control) for 24 h. Following treatment, the culture medium was removed, 100 µL of medium (without FBS) was added, and 10 µL of CCK-8 was then added to each well. The culture was incubated for 1 h at 37 ℃ and 5% CO2. Finally, the light absorption value at 450 nm was detected by the microplate reader. Relative cell viability was calculated according to Equation (3):(3) Cell viability%=(A − A0)/A1 − A0 × 100 where A1 is the absorbance of cells that are not treated with peptides, A is the absorbance of cells that are treated with peptides, and A0 is the absorbance of the group without cells in the medium.

EA.hy926 cells = assay: Cell viability, CCK-8; format: cell-based, Human; conditions: 0–400 μg/mL, 24 h
Description: as §1, §2

cells = conditions: treatment with 25–100 µg/mL; cited from earlier work
Description: NO is a messenger molecular medium that provides multiple functions in biological tissues. Previous studies have shown that the production of NO is one of the potential mechanisms for the prevention and treatment of hypertension. Inhibiting ACE can prevent vasodilator breakdown and directly stimulate endothelial cells to produce NO [16]. We cultured EA.hy926 cells in the medium and evaluated the intracellular NO in order to see how VW-7 affected the generation of NO in these cells.

## VSRHFASYAN
ACE; peptides from sea cucumber
  type of ACE inhibition: mixed-type inhibition

## NMAINPSKENLCSTFCK
ACE; peptide from casein
  type of ACE inhibition: mixed-type inhibition

## EVSQGRP
ACE; peptides from sea cucumber
  type of ACE inhibition: mixed-type inhibition

## CC(C)C[C@H](NC(=O)[C@H](Cc1ccc(O)cc1)NC(=O)[C@H](CC(=O)O)NC(=O)[C@H](CC(N)=O)NC(=O)[C@@H](N)C(C)C)C(=O)N[C@@H](CC(N)=O)C(=O)N[C@@H](Cc1c[nH]c2ccccc12)C(=O)O [VNDYLNW] (H-VNDYLNW-OH)
Pepsin and trypsin; 0.4 mg/mL in ultrapure water, pH 2.0 pepsin 2% w/w 2 h 37 °C, then pH 7.0 trypsin 2% w/w 2 h 37 °C, read-out ACE inhibition rate, p > 0.05
  ACE inhibitory action after gastrointestinal digestion: remained essentially unaltered
Pepsin and trypsin; 0.4 mg/mL, pepsin pH 2.0 2 h then trypsin pH 7.0 2 h, 37 °C, RP-HPLC, UV 214 nm
  RP-HPLC peak area after two-step digestion: did not change
Cell viability, CCK-8; 600 µg/mL, mean ± SD
  viability at 24 h, 600 µg/mL: 92.4 ± 2.4%
Cell viability, CCK-8; concentration above 600 µg/mL (up to 1000 µg/mL)
  viability at 24 h: < 80%
EA.hy926 cells
  toxic effect on EA.hy926 cells: no toxic effect
EA.hy926 cells; listed as VW-7
  toxic effect on EA.hy926 cells: no cytotoxicity

## VTPVGVPKW
ACE; peptide extracted from Black Cumin seeds
  IC50: 1.8 µM

## VASVI [reported antihypertensive peptide from Olive Flounder Surimi]
cells
  production of NO in cells: significantly increased

## VDMF
ACE; peptide extracted from Coix prolamin
  IC50: 382 µM

## SAAVGSP
ACE; peptides from sea cucumber
  type of ACE inhibition: mixed-type inhibition
